From patent US20260176289A1, “SMALL MOLECULE INHIBITORS OF KRAS PROTEINS” (Merck Sharp & Dohme LLC, priority 2022, published 2026) come the findings set out here.

For orientation: IC50 means the midpoint of a concentration-inhibition curve.

Like-named read-outs stand apart in the source and are kept apart here.

Assay [1] deals with KRAS-WT (Homo sapiens, UniProt P01116). Description: SOS-catalyzed nucleotide exchange assay (Procedure A, TR-FRET), KRAS-WT. To be noted: nucleotide exchange, read-out: KRAS WT GNE IC50. The assay is classed as biochemical. The procedure, abridged:
(§1)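 RAS (G12C carries C51S/C80L/C118S) loaded with Bodipy-GDP, complexed with Tb-streptavidin; cpd 60 min RT; + SOS/3 mM GTP. G12C 3/40 nM, WT 1/40, NRAS 1.25/40 nM RAS/SOS, 60 min; G12V 1.25/160 nM, 90 min. Normalized to DMSO and saturating inhibitor; 4PL fit.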
In general terms: Time-resolved FRET reads energy transfer from a long-lived donor to a nearby acceptor.

Assay [2] concerns the target KRAS-G12V (Homo sapiens, UniProt P01116, G12V). Briefly: SOS-catalyzed nucleotide exchange assay (Procedure A, TR-FRET), KRAS-G12V. The assay is classed as biochemical. To be noted: nucleotide exchange, read-out: KRAS G12V GNE IC50. The procedure, abridged:
as §1

Assay [3] has as its system MKN-1 cells. Briefly: Cellular phospho-ERK assay, MKN-1 cells (amplified wild-type KRAS). The class given is cell-based. The following applies: Homo sapiens, read-out: MKN1 pERK IC50. A digest of the protocol: (§2)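 Cells seeded at 10,000-15,000 per well were incubated overnight, then exposed to compound for 2 hours at 37 °C in a 10-point, 1:3 series topping at 30 μM final. Lysates were assayed by Alpha SureFire Ultra multiplex for p-ERK and total ERK; IC50 came from a 4-parameter logistic fit of their ratio.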

In assay [4] the test system is AsPC-1 cells. Description: Cellular phospho-ERK assay, AsPC-1 cells (homozygous KRAS-G12D). The assay is classed as cell-based. To be noted: Homo sapiens, ASPC1, 2 h, read-out: AsPC1 pERK IC50. A digest of the protocol:
as §2

Assay [5] concerns the target KRAS-G12D (Homo sapiens, UniProt P01116, G12D). Briefly: SOS-catalyzed nucleotide exchange assay (Procedure A, TR-FRET), KRAS-G12D. The assay is classed as biochemical. The following applies: nucleotide exchange, read-out: KRAS G12D GNE IC50. The procedure, abridged:
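Signal ratio (520/495 nm, excitation 340 nm) reports Bodipy-GDP retention on biotinylated RAS after SOS-catalyzed exchange with 3 mM GTP. SOS was 40 nM, except 160 nM for G12V. Room-temperature exchange lasted 60 min (90 min for G12V), following a 60 min compound preincubation.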

The test system of assay [6] is SW620 cells. Description: Cellular phospho-ERK assay, SW620 cells (homozygous KRAS-G12V). The class given is cell-based. The following applies: Homo sapiens, read-out: SW620 pERK IC50. A digest of the protocol:
as §2

Where [7] appears, read: SW-620, 2 hours compound incubation.
Setting [8] is: amplified wild-type KRAS, 2 hours.

Sequence of KRAS-WT (P01116 with tags, fused parts or gaps isoform P01116-2): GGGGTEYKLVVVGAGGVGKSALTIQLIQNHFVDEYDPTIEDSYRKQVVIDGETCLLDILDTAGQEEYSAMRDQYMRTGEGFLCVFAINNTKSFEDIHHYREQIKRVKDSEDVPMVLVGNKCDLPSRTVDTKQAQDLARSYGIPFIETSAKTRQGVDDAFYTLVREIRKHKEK
Sequence of KRAS-G12D (P01116 with tags, fused parts or gaps isoform P01116-2 G12D): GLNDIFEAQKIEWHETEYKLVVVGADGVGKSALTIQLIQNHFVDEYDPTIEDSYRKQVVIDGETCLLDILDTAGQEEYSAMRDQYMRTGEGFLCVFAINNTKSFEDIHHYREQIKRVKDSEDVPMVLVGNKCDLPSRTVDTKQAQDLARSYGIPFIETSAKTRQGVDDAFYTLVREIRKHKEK
Sequence of KRAS-G12V (P01116 with tags, fused parts or gaps isoform P01116-2 G12V): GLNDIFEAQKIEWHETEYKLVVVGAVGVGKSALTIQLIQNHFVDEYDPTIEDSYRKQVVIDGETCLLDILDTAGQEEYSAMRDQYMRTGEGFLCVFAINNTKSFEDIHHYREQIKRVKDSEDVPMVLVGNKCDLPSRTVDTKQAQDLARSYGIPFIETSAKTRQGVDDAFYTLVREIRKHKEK

Turning to `CO[C@@H]1CN2CCC[C@@]2(COc2nc(N3CCOC[C@@](C)(O)C3)c3c(n2)sc2c(-c4c(C5CC5)c(Cl)cc5[nH]ncc45)nccc23)C1` [Ex-228, (6S)-4-(8-(6-chloro-5-cyclopropyl-1H-indazol-4-yl)-2-(((25,7aS)-2-meth-oxytetrahydro-1H-pyrrolizin-7a(5H)-yl)methoxy)pyrido [4′,3′:4,5]thieno[2,3-d]pyrimidin-4-yl)-6-methyl-1,4-oxaze-pan-6-ol], the IC50 in assay [1] is 53 nM; in assay [2], 38.2 nM; in assay [3] (2 hours compound incubation) it was 180 nM; in assay [4] (2 hours compound incubation) it was 379 nM; in assay [5], 16 nM; in assay [6] (setting [7]), 133 nM.
For `C[C@@]1(O)COCCN(c2nc(OC[C@]34C[C@@H](F)CN3CC3(CC3)C4)nc3sc4c(-c5c(C6CC6)c(Cl)cc6[nH]ncc56)nccc4c23)C1` [Ex-220, (6S)-4-(8-(6-chloro-5-cyclopropyl-1H-indazol-4-yl)-2-(((6R,7a′S)-6′-fluorodihydro-1H, 3H-spiro[cyclopro-pane-1,2′-pyrrol-izin]7a′(5′H)-yl)-methoxy)pyrido [4′,3′:4,5]thieno[2,3-d]pyrimidin-4-yl)-6-methyl-1,4-oxaze-pan-6-ol], the IC50 turned out to be 72.3 nM in assay [1]; 70.6 nM in assay [2]; 171 nM in assay [3] (2 hours compound incubation); 176 nM in assay [4] (2 hours compound incubation); 27.8 nM in assay [5]; 130 nM in assay [6] (setting [7]).
In the case of `Cc1cc2[nH]ncc2c(-c2nccc3c2sc2nc(OC[C@@]45CCCN4C[C@H](F)C5)nc(N4CCOC[C@@](C)(O)C4)c23)c1C1(F)CC1` [Ex-54, (6S)-4-(8-(5-(1-fluorocyclopropyl)-6-methyl-1H-indazol-4-yl)-2-(((2R,7aS)-2-fluorotetrahydro-1H-pyrrolizin-7a(5H)-yl)methoxy)pyrido[4′,3′:4,5]thi-eno[2,3-d)pyrimidin-4-yl)-6-methyl-1,4-oxazepan-6-ol], the IC50 in assay [1] was determined as 10.8 nM; in assay [2] it was 11.1 nM; in assay [3] (setting [8]), 56.5 nM; in assay [4] (KRAS-G12D, 2 hours), 84.6 nM; in assay [5] it was 5.06 nM; in assay [6] (SW-620, KRAS-G12V, 2 hours), 186 nM.
In the case of `Cc1cc2[nH]ncc2c(-c2nccc3c2sc2nc(OC[C@@]45CCCN4C[C@H](F)C5)nc(N4CCOC[C@@](C)(O)C4)c23)c1[C@@H]1C[C@H]1C` (atropisomer, axis not shown; (aS)) [Ex-67, (S)-4-((R)-2-(((2R,7aS)-2-fluorotetrahydro-1H-pyrrolizin-7a(5H)-yl)methoxy)-8-(6-methyl-5-((1R,2R)-2-methylcyclopropyl)-1H-indazol-4-yl)pyrido[4′,3′:4,5]thieno [2,3-d]pyrimidin-4-yl)-6-methyl-1,4-oxazepan-6-o1], the IC50 turned out to be 40 nM in assay [1]; 23.1 nM in assay [2]; 186 nM in assay [3] (setting [8]); 113 nM in assay [4] (KRAS-G12D, 2 hours); 11.9 nM in assay [5]; 323 nM in assay [6] (SW-620, KRAS-G12V, 2 hours).
On to `C[C@@]1(O)COCCN(c2nc(OC[C@@]34CCCN3C[C@H](F)C4)nc3sc4c(-c5c(C6(F)CC6)c(C(F)(F)F)cc6[nH]ncc56)nncc4c23)C1` [Ex-283, (6S)-4-(8-(5-(1-fluorocyclopropyl)-6-(trifluoromethyl)-1H-indazol-4-yl)-2-(((2R,7aS)-2-fluorotetrahydro-1H-pyrrolizin-7a(5H)-yl)methoxy)pyrimido [5′,4′:4,5]thieno[2,3-d]pyridazin-4-yl)-6-methyl-1,4-oxazepan-6-ol], for which the concentration for half-maximal inhibition (IC50) in assay [1] worked out at 14.5 nM; in assay [2], 15.4 nM; in assay [3] (setting [8]), 77.4 nM; in assay [4] (KRAS-G12D, 2 hours), 244 nM; in assay [5], 5.26 nM; in assay [6] (SW-620, KRAS-G12V, 2 hours), 41.5 nM.
On to `CN(C)C1COC2C[C@@]21COc1nc(N2CCOC[C@@](C)(O)C2)c2c(n1)sc1c(-c3c(C4(F)CC4)c(Cl)cc4[nH]ncc34)nccc12` (stereo partly drawn) [Ex-269, (6S)-4-(8-(6-chloro-5-(1-fluorocyclopropyl)-1H-indazol-4-yl)-2-((4-(dimethylamino)-2-oxabicyclo[3.1.0]hexan-5-yl)methoxy)pyri-do[4′,3′:4,5]thi-eno[2,3-d]pyrimidin-4-yl)-6-methyl-1,4-oxazepan-6-ol], for which the IC50 is 24.9 nM in assay [1]; 20 nM in assay [2]; 90.1 nM in assay [3] (2 hours compound incubation); 182 nM in assay [4] (2 hours compound incubation); 8.13 nM in assay [5]; 84.5 nM in assay [6] (setting [7]).
For the molecule `C/C=C/c1c(C)cc2[nH]ncc2c1-c1nccc2c1sc1nc(OC[C@@]34CCCN3C[C@H](F)C4)nc(N3CCOC[C@@](C)(O)C3)c12` [Ex-64, (6S)-4-(2-(((2R,7aS)-2-fluorotetrahydro-1H-pyrrolizin-7a(5H)-yl)methoxy)-8-(6-methyl-5-((E)-prop-1-en-1-yl)-1H-indazol-4-yl)pyrido[4′,3′:4,5]thieno [2,3-d]pyrimidin-4-yl)-6-methyl-1,4-oxazepan-6-ol], the IC50 in assay [1] was 250 nM; in assay [2], 163 nM; in assay [3] (setting [8]) it was 389 nM; in assay [4] (KRAS-G12D, 2 hours) it was 486 nM; in assay [5], 99.1 nM; in assay [6] (SW-620, KRAS-G12V, 2 hours), 294 nM.
Consider `CC(C)(C)c1c(Cl)cc2[nH]ncc2c1-c1nccc2c1sc1nc(OC[C@@]34CCCN3C[C@H](F)C4)nc(N3CCOC[C@@](C)(O)C3)c12` [Ex-156, (6S)-4-(8-(5-(tert-butyl)-6-chloro-1H-indazol-4-yl)-2-(((2R,7aS)-2-fluorotetrahydro-1H-pyrrolizin-7a(5H)-yl)methoxy)pyrido[4′,3′:4,5]thieno[2,3-d]pyrimidin-4-yl)-6-methyl-1,4-oxazepan-6-ol], for which the IC50 in assay [1] was determined as 18.9 nM; in assay [2], 16.7 nM; in assay [3] (2 hours compound incubation) it was 113 nM; in assay [4] (2 hours compound incubation), 76.1 nM; in assay [5], 5.21 nM; in assay [6] (setting [7]), 45.2 nM.
Consider `C[C@@]1(O)COCCN(c2nc(OC[C@@]34CCCN3C[C@H](F)C4)nc3sc4c(-c5c6c(cc7[nH]ncc57)CC5CC65)nccc4c23)C1` (stereo partly drawn) [Ex-90, (6S)-4-(2-(((2R,7aS)-2-fluorotetrahydro-1H-pyrrolizin-7a(5H)-yl)methoxy)-8-(4b,5,5a,6-tetrahydro-1H-cyclopropa[4,5]cyclopen-ta[1,2-f]indazol-4-yl)pyrido[4′,3′:4,5]thieno [2,3-d]pyrimidin-4-yl)-6-methyl-1,4-oxazepan-6-ol], for which the half-inhibitory concentration (IC50) in assay [1] is 152 nM; in assay [2] it was 85 nM; in assay [3] (setting [8]), 174 nM; in assay [4] (KRAS-G12D, 2 hours), 311 nM; in assay [5], 48.8 nM; in assay [6] (SW-620, KRAS-G12V, 2 hours), 193 nM.
Regarding `C[C@@]1(O)COCCN(c2nc(OC[C@@]34CCCN3C[C@H](F)C4)nc3sc4c(-c5c6cn[nH]c6cc6ccc(F)c(Cl)c56)nccc4c23)C1` [Ex-162], the half-inhibitory concentration (IC50) in assay [1] is 43.6 nM; in assay [2] it was 47.5 nM; in assay [3] (2 hours compound incubation), 106 nM; in assay [4] (2 hours compound incubation), 133 nM; in assay [5] it was 19.8 nM; in assay [6] (setting [7]), 48 nM.
With `C[C@@]1(O)COCCN(c2nc(OC[C@]3(CN4CC5(CCOCC5)C4)CC3(F)F)nc3sc4c(-c5c(C6(F)CC6)c(Cl)cc6[nH]ncc56)nccc4c23)C1` [Ex-248, (6S)-4-(2-(((R)-1-((7-oxa-2-azaspiro[3.5]nonan-2-yl)methyl)-2,2-difluorocyclopropyl)methoxy)-8-(6-chloro-5-(1-fluorocyclopropyl)-1H-indazol-4-yl)pyrido[4′,3′:4,5]thieno[2,3-d]pyrimidin-4-y1)-6-methyl-1,4-oxazepan-6-ol], the IC50 in assay [1] is 12.5 nM; in assay [2], 15.5 nM; in assay [3] (2 hours compound incubation), 36.3 nM; in assay [4] (2 hours compound incubation), 45.7 nM; in assay [5] it was 3.09 nM; in assay [6] (setting [7]) it was 42.8 nM.
